Holding throughout (assay type): biochemical
For one test, the target named is Bl_Glc31 (Bifidobacterium longum, UniProt Q8G4P4). Nature of the test: LC-MS. As to conditions: product Man9GlcNAc.
A further test concerns the target T1, Bl_Endo85 (Bifidobacterium longum, UniProt Q8G4P3).
T1 sequence (Q8G4P3 38-937): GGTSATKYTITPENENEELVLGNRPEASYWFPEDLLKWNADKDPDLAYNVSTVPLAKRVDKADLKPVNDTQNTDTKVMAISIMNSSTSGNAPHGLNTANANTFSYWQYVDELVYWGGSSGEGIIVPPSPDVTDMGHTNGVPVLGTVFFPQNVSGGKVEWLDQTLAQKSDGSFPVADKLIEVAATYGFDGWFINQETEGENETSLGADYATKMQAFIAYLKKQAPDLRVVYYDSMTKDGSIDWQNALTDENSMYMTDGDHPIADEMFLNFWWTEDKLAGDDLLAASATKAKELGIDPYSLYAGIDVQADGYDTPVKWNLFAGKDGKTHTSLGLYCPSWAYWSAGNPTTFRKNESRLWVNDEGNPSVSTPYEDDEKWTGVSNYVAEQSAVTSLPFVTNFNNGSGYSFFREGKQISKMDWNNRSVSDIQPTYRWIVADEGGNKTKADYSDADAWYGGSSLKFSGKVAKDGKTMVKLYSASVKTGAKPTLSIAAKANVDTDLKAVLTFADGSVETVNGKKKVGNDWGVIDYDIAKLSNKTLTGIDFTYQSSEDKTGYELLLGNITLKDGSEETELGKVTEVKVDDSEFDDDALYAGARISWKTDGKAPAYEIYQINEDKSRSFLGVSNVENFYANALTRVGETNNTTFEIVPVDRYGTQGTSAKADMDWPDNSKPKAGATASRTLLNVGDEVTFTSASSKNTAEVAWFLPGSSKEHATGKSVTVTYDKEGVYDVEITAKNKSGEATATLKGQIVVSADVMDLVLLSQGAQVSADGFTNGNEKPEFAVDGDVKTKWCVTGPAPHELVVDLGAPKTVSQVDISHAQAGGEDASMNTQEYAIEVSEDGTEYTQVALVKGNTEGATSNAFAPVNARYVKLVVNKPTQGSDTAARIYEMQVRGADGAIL
Description: LC-MS. The settings on record: 150 mM ammonium acetate pH 5.0, 37 °C, 16 h; product Man9GlcNAc.

In the next test the target is T2, Bl_Man38C (Bifidobacterium longum, UniProt Q8G4P9).
T2 sequence (Q8G4P9 1-1034): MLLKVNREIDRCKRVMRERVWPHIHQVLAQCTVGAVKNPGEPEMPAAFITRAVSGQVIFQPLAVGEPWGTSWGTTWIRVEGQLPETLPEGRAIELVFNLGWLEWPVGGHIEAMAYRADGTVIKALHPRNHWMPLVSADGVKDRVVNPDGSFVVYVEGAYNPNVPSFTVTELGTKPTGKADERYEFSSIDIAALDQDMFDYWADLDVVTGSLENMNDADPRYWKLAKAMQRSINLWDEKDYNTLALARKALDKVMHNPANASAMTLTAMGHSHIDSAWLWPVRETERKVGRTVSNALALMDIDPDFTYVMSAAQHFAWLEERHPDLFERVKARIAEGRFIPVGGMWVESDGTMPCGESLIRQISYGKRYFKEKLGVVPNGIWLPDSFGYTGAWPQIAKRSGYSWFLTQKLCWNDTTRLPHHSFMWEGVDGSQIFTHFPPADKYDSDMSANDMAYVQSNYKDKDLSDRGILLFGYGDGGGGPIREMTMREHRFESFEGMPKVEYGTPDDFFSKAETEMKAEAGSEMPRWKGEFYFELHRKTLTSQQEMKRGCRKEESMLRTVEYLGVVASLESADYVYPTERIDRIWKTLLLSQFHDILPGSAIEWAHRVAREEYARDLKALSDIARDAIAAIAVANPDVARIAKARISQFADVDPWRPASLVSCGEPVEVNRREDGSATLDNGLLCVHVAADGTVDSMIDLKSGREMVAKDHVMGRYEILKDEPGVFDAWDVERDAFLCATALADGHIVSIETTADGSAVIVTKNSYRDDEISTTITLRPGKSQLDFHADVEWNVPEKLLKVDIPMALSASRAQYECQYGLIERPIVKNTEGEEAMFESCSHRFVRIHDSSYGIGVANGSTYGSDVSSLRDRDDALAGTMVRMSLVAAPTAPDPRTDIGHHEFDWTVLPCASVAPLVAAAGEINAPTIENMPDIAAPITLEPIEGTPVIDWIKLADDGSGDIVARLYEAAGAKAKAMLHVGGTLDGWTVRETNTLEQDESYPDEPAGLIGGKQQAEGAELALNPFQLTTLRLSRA
Description: LC-MS hydrolysis kinetics. As to conditions: pH 5.5, 37 °C, 0.1 mM CoCl2.

The target in another test is T3, Bl_Man38B (Bifidobacterium longum, UniProt Q8G4Q0).
T3 sequence (Q8G4Q0 1-1046): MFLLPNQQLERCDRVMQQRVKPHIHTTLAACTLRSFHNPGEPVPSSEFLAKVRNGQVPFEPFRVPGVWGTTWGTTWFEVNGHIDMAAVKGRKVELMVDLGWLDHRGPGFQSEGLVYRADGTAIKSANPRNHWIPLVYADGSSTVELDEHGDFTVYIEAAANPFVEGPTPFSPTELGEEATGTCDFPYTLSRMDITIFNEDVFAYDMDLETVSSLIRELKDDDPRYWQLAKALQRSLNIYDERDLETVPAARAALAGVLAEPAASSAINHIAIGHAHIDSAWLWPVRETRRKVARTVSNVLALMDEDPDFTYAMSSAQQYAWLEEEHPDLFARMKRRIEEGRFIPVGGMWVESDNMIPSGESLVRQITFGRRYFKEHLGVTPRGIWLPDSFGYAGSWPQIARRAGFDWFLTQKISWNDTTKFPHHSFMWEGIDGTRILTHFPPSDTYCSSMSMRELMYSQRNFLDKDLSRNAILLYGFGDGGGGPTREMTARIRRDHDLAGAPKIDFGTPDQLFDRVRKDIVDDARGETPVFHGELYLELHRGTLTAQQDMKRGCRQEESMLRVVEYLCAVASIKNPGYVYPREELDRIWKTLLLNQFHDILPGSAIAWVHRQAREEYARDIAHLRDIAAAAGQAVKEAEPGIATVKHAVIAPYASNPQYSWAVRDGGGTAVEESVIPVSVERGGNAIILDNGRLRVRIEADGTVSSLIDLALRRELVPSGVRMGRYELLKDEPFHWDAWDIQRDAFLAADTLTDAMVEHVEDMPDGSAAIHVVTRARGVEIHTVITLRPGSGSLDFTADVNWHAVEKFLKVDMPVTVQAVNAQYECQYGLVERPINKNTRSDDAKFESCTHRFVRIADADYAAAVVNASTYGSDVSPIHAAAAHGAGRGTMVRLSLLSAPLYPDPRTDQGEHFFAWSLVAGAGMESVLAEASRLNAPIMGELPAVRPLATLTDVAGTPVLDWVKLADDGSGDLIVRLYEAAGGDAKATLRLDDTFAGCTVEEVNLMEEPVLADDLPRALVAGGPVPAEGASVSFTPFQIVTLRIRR
Description: LC-MS hydrolysis kinetics. As to conditions: pH 5.5, 37 °C, 0.1 mM CoCl2.

Another test addresses T4, Bl_Man125 (Bifidobacterium longum, UniProt Q8G4P0).
T4 sequence (Q8G4P0 1-432): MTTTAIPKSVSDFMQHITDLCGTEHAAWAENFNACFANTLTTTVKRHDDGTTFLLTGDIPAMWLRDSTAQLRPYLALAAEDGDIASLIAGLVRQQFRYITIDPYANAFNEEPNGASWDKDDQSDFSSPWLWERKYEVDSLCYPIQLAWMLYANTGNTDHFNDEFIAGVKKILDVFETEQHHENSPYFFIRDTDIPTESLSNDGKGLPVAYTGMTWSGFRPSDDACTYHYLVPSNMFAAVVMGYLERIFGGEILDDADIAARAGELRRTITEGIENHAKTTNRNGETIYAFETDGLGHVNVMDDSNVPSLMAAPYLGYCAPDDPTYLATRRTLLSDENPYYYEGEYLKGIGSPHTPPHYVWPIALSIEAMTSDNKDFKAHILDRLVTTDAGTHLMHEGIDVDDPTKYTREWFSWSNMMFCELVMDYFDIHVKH
Description: LC-MS hydrolysis kinetics. As to conditions: pH 5.5, 37 °C.

The text below walks through data of publication PMC10367113 (Nature chemical biology, 2022).

SMILES strings stand for the structures.

For the compound `CC(=O)N[C@H]1C(O)O[C@H](CO)[C@@H](O[C@@H]2O[C@H](CO[C@H]3O[C@H](CO[C@H]4O[C@H](CO)[C@@H](O)[C@H](O)[C@@H]4O[C@H]4O[C@H](CO)[C@@H](O)[C@H](O)[C@@H]4O)[C@@H](O)[C@H](O[C@H]4O[C@H](CO)[C@@H](O)[C@H](O)[C@@H]4O[C@H]4O[C@H](CO)[C@@H](O)[C@H](O)[C@@H]4O)[C@@H]3O)[C@@H](O)[C@H](O[C@H]3O[C@H](CO)[C@@H](O)[C@H](O)[C@@H]3O[C@H]3O[C@H](CO)[C@@H](O)[C@H](O)[C@@H]3O[C@H]3O[C@H](CO)[C@@H](O)[C@H](O[C@H]4O[C@H](CO)[C@@H](O)[C@H](O)[C@H]4O)[C@@H]3O)[C@@H]2O)[C@@H]1O` (some centres unmarked) [GlcMan9GlcNAc], at Bl_Glc31, the LC-MS entry is listed as “Bl_Glc31 can specifically cleave GlcMan9GlcNAc, generating only Man9GlcNAc”. Regarding `CC(=O)N[C@@H]1[C@@H](O)[C@H](O[C@@H]2O[C@H](CO)[C@@H](O[C@@H]3O[C@H](CO[C@H]4O[C@H](CO[C@H]5O[C@H](CO)[C@@H](O)[C@H](O)[C@@H]5O[C@H]5O[C@H](CO)[C@@H](O)[C@H](O)[C@@H]5O)[C@@H](O)[C@H](O[C@H]5O[C@H](CO)[C@@H](O)[C@H](O)[C@@H]5O[C@H]5O[C@H](CO)[C@@H](O)[C@H](O)[C@@H]5O)[C@@H]4O)[C@@H](O)[C@H](O[C@H]4O[C@H](CO)[C@@H](O)[C@H](O)[C@@H]4O[C@H]4O[C@H](CO)[C@@H](O)[C@H](O)[C@@H]4O[C@H]4O[C@H](CO)[C@@H](O)[C@H](O)[C@@H]4O)[C@@H]3O)[C@H](O)[C@H]2NC(C)=O)[C@@H](CO)O[C@H]1NC(=O)C[C@H](N)C(=O)O` [Man9GlcNAc2-Asn], the LC-MS result at Bl_Endo85 was “Reactions of Bl_Endo85 against Man5GlcNAc2-Asn (e) and Man9GlcNAc2-Asn (g)”. For `OC[C@H]1O[C@H](O[C@@H]2C(O)O[C@H](CO)[C@@H](O)[C@@H]2O)[C@@H](O)[C@@H](O)[C@@H]1O` (stereo partly drawn) [α-1,2-mannobiose], the Km result on Bl_Man38C is on record as “Bl_Man38C presents a clear preference for α-1,2-mannobiose”. On to `OC[C@H]1O[C@H](OC[C@H]2OC(O)[C@@H](O)[C@@H](O)[C@@H]2O)[C@@H](O)[C@@H](O)[C@@H]1O` (stereo partly drawn) [α-1,6-mannobiose], for which the Km result on Bl_Man38B was “Bl_Man38B was efficient over the three disaccharides”; on Bl_Man125, “Bl_Man125 was shown to be strictly an α-1,6-mannosidase”.
